# Key:
# [1] = test system: U2OS cells; assay: Live-cell quantification of YOYO-3-positive dead cells; format: cell-based
# Procedure: To measure caspase activity, cells cultured in white opaque-bottom 384-well plates were incubated in the presence or absence of 1 μg/mL Dox for 24 hours. Caspase-Glo 8 or 3/7 reagent was then added 1:1 and allowed to incubate for 90 minutes at RT followed by luminescence measurement using the CLARIOstar microplate reader (BMG LABTECH). Signals had background luminescence subtracted and then normalized to the respective Dox-untreated i-GFP-expressing parental controls to obtain relative CASP8-like LETDase or CASP3/7-like DEVDase activities. For live-cell quantification, the cells seeded on black clear-bottom 96-well plates were incubated with the indicated compounds (0.1% to 0.3% DMSO final) in the presence of 100 nM YOYO-3, a cell-impermeant DNA-binding fluorescent probe that stains membrane integrity-impaired, dead cells. […] Phase and fluorescence images were obtained at the indicated intervals using the IncuCyte S3 Live-Cell Analysis System (Essen BioScience; 10× objective) and then analyzed using the Cell-by-Cell Analysis module (Essen BioScience; 9600-0031) of IncuCyte S3 Software (Essen BioScience; Version 2019B Rev2). To quantify the percentage of dead GFP-expressing cells, the GFP and YOYO-3 double-positive cell population was divided by the total GFP-positive cell population.
# [2] = Human liver microsomal stability; format: in vitro ADME; details: Human liver microsomes, 1 μM of compound
# Procedure: All in vitro absorption, distribution, metabolism, and excretion (ADME) studies were conducted by BioDuro-Sundia. […] Caco-2 permeability, human liver microsomal stability, and human plasma protein binding assays as well as liquid chromatography-mass spectrometry/mass spectrometry analyses were performed following standard protocols previously described in detail ([Kazakova et al, 2023]).
smiles,measurement,setting,value
"COc1cccc2c(NCc3ccccc3)nc(NCc3ccccc3)nc12 [Compound 4-107, N^2,N^4-dibenzyl-8-methoxyquinazoline-2,4-diamine]",cell death (YOYO-3-positive dead cells),"[1]; 2 μM 4-107, WT U2OS cells",induced cell death in a time-dependent manner
same,enhanced temporal sensitivity of VPS4A- and VPS4B-deficient cells compared with WT cells,"[1]; 2 μM 4-107, crVPS4A, crVPS4B vs WT U2OS",about 12 hours
same,"Liver microsomal stability, remaining after 1 h",[2],71.83%
same,microsomal CLint at 1 μM,"[2]; read-out: In vitro intrinsic clearance, Clint",11.8 µL/min/mg
same,half-life at 1 μM,"[2]; read-out: Liver microsomal stability, T1/2",1.95 h

# — PMC13095408, “DBeQ derivative targets vacuolar protein sorting 4 functions in cancer cells and suppresses tumor growth in mice” (The Journal of Pharmacology and Experimental Therapeutics, 2025)
